Assay results taken from patent US20240285674A1, “USE OF SULFATE GLUCO-GALACTO-OLIGOSACCHARIDE IN PREPARATION OF ANTICOAGULANT AND/OR ANTITHROMBOTIC DRUG” (NANJING UNIVERSITY OF SCIENCE AND TECHNOLOGY, priority 2021, published 2024).

Tests used:
Coagulation factor FXa = Coagulation factor FXa (Homo sapiens, UniProt P00742); assay: Inhibitory activity on coagulation factor FXa (chromogenic substrate CS-11(22)); type: biochemical; details: sample 1 mg/mL; for Inhibitory effect on coagulation factor FXa: incubated at 37° C. for 1 h
Protocol: (§1) • a. 100 μL of FXa (5 nM) and 50 μL of the sulfate gluco-galacto-oligosaccharide sample (1 mg/mL) were mixed in a 96-well plate, incubated at 37° C. for 1 h, added with 50 μL of a substrate CS-11(22) (1.77 mM), and detected at a wavelength of 405 nm for 60 min, detecting once every minute. • b. 100 μL of HFXIa (human coagulation factor XIa, 1 nM) and 50 μL of the sulfate gluco-galacto-oligosaccharide sample (1 mg/mL) were mixed in a 96-well plate, incubated at 37° C. for 1 h, added with 50 μL of a substrate S2366 (1 mM), and detected at a wavelength of 405 nm for 60 min, detecting once every minute. • c. 100 μL of FXIIa (4 nM) and 50 μL of the sulfate gluco-galacto-oligosaccharide sample (1 mg/mL) were mixed in a 96-well plate, incubated 37° C. for 1 h, added with 50 μL of a substrate Pefachrome FXIIa/TH5253 (1 mM), and detected at a wavelength of 405 nm for 60 min, detecting once every minute. • d. 100 μL of Trypsin (8.3 nM) and 50 μL of the sulfate gluco-galacto-oligosaccharide sample (1 mg/mL) were mixed in a 96-well plate, incubated 37° C. for 1 h, added with 50 μL of a substrate CS-11(22) (1 mM), and detected at a wavelength of 405 nm for 60 min, detecting once every minute. • e. 100 μL of Thrombin (0.2 IU/mL) and 50 μL of the sulfate gluco-galacto-oligosaccharide sample (1 mg/mL) were mixed in a 96-well plate, incubated at 37° C. for 1 h, added with 50 μL of a substrate CS-01(38) (400 μM), and detected at a wavelength of 405 nm for 60 min, detecting once every minute. • f. 100 μL of Kallikrein (1 nM) and 50 μL of the sulfate gluco-galacto-oligosaccharide sample (1 mg/mL) were mixed in a 96-well plate, incubated 37° C. for 1 h, added with 50 μL of a substrate CS-31(02) (1 mM), and detected at a wavelength of 405 nm for 60 min, detecting once every minute.
(§2) Data processing was conducted using the software Graphpad Prism 6.0. Regression analysis was conducted with the reaction time as an abscissa and the absorbance value at 405 nm as an ordinate.
The calculated inhibition rate=(V0−V1)/V0×100%. […] The degree of sulfation of the sulfate gluco-galacto-oligosaccharide was controlled by controlling the ratio of gluco-galacto-oligosaccharide and sulfating reagent. […] It was seen that the more sulfate groups on average per sugar residue, the higher the inhibition rate of FXa by the sulfate gluco-galacto-oligosaccharide.

[1] = molecular target: T1, HFXIa (human coagulation factor XIa) (Homo sapiens, UniProt P03951); assay: Inhibitory activity on coagulation factor XIa (chromogenic substrate S2366); type: biochemical; details: sample 1 mg/mL, incubated at 37° C. for 1 h
T1 construct: HFXIa (human coagulation factor XIa, 1 nM)
Protocol: as §1, with “100 μL of Thrombin (0.2 IU/mL) and 50 μL of the sulfate gluco-galacto-oligosaccharide sample (1 mg/mL) were mixed in a 96-well plate, incubated at 37° C. for 1 h, added with 50 μL of a substrate CS-01(38) (400 μM), and detected at a wavelength of 405 nm for 60 min, detecting once every minute. • f. 100 μL of Kallikrein (1 nM) and 50 μL of the sulfate gluco-galacto-oligosaccharide sample (1 mg/mL) were mixed in a 96-well plate, incubated 37° C. for 1 h, added with 50 μL of a substrate CS-31(02) (1 mM), and detected at a wavelength of 405 nm for 60 min, detecting once every minute.” left out
as §2

Coagulation factor FXIIa = molecular target: T2, Coagulation factor FXIIa (Homo sapiens, UniProt P00748); assay: Inhibitory activity on FXIIa (chromogenic substrate Pefachrome FXIIa/TH5253); type: biochemical; details: sample 1 mg/mL, incubated at 37° C. for 1 h
T2 sequence (P00748 373-615 limits assumed): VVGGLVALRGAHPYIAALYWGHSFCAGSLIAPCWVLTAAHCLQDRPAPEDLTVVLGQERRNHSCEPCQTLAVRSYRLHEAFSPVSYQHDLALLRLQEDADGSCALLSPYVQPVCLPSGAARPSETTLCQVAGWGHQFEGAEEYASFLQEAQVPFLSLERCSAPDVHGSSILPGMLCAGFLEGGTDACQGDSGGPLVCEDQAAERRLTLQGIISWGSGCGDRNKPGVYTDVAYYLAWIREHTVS
Protocol: as §1, with “100 μL of Thrombin (0.2 IU/mL) and 50 μL of the sulfate gluco-galacto-oligosaccharide sample (1 mg/mL) were mixed in a 96-well plate, incubated at 37° C. for 1 h, added with 50 μL of a substrate CS-01(38) (400 μM), and detected at a wavelength of 405 nm for 60 min, detecting once every minute. • f. 100 μL of Kallikrein (1 nM) and 50 μL of the sulfate gluco-galacto-oligosaccharide sample (1 mg/mL) were mixed in a 96-well plate, incubated 37° C. for 1 h, added with 50 μL of a substrate CS-31(02) (1 mM), and detected at a wavelength of 405 nm for 60 min, detecting once every minute.” left out
as §2

Trypsin = assay: Inhibitory activity on trypsin (chromogenic substrate CS-11(22)); type: biochemical; details: sample 1 mg/mL, incubated at 37° C. for 1 h
Protocol: as §1, with “100 μL of Thrombin (0.2 IU/mL) and 50 μL of the sulfate gluco-galacto-oligosaccharide sample (1 mg/mL) were mixed in a 96-well plate, incubated at 37° C. for 1 h, added with 50 μL of a substrate CS-01(38) (400 μM), and detected at a wavelength of 405 nm for 60 min, detecting once every minute. • f. 100 μL of Kallikrein (1 nM) and 50 μL of the sulfate gluco-galacto-oligosaccharide sample (1 mg/mL) were mixed in a 96-well plate, incubated 37° C. for 1 h, added with 50 μL of a substrate CS-31(02) (1 mM), and detected at a wavelength of 405 nm for 60 min, detecting once every minute.” left out
as §2

Thrombin = molecular target: T3, Thrombin (Homo sapiens, UniProt P00734); assay: Inhibitory activity on thrombin (chromogenic substrate CS-01(38)); type: biochemical; details: sample 1 mg/mL, incubated at 37° C. for 1 h
T3 construct: 100 μL of Thrombin (0.2 IU/mL)
Protocol: as §1, with “100 μL of Thrombin (0.2 IU/mL) and 50 μL of the sulfate gluco-galacto-oligosaccharide sample (1 mg/mL) were mixed in a 96-well plate, incubated at 37° C. for 1 h, added with 50 μL of a substrate CS-01(38) (400 μM), and detected at a wavelength of 405 nm for 60 min, detecting once every minute. • f. 100 μL of Kallikrein (1 nM) and 50 μL of the sulfate gluco-galacto-oligosaccharide sample (1 mg/mL) were mixed in a 96-well plate, incubated 37° C. for 1 h, added with 50 μL of a substrate CS-31(02) (1 mM), and detected at a wavelength of 405 nm for 60 min, detecting once every minute.” left out
as §2

Kallikrein = Kallikrein (Homo sapiens, UniProt P03952); assay: Inhibitory activity on kallikrein (chromogenic substrate CS-31(02)); type: biochemical; details: sample 1 mg/mL, incubated at 37° C. for 1 h
Protocol: as §1, with “100 μL of Thrombin (0.2 IU/mL) and 50 μL of the sulfate gluco-galacto-oligosaccharide sample (1 mg/mL) were mixed in a 96-well plate, incubated at 37° C. for 1 h, added with 50 μL of a substrate CS-01(38) (400 μM), and detected at a wavelength of 405 nm for 60 min, detecting once every minute. • f. 100 μL of Kallikrein (1 nM) and 50 μL of the sulfate gluco-galacto-oligosaccharide sample (1 mg/mL) were mixed in a 96-well plate, incubated 37° C. for 1 h, added with 50 μL of a substrate CS-31(02) (1 mM), and detected at a wavelength of 405 nm for 60 min, detecting once every minute.” left out
as §2

[2] = system: intrinsic coagulation pathway; assay: Activated partial thromboplastin time (APTT) of plasma from mice after tail vein injection; type: in vivo, C57/BL-6J mice; details: 0.25, 0.5 and 1.0 mg/mL injected into the tail vein
Protocol: The experimental animals were male C57/BL-6J mice, weighing 18 g to 20 g. The mice were housed under standard experimental conditions with a 12-hour light-12-hour dark cycle with free access to water and food. The mice were anesthetized by intraperitoneal injection of 5% chloral hydrate, and administration of the drug was administered through the tail vein after confirming that the mice were completely anesthetized and had no eyelid reflex. The mice were randomly divided into four groups. […]
Activated partial thromboplastin time (APTT) is a duration required to observe plasma coagulation after adding an APTT reagent and calcium ions to the tested plasma. […] The APTT was measured according to the operating procedures in the kit instructions, and the fibrin formation time was read on the coagulometer. […]
The coagulation time of the physiological saline group was recorded as 1 times, and the multiples of APTT of the sulfate gluco-galacto-oligosaccharide samples with different concentrations relative to the physiological saline group were calculated.

[3] = system: ferric chloride-induced carotid artery thrombosis; assay: Ferric chloride-induced carotid artery thrombosis model, blood vessel occlusion time; type: in vivo, C57/BL-6J mice; details: tail vein, mice
Protocol: (§3) The experimental animals were male C57/BL-6J mice, weighing 18 g to 20 g. The mice were housed under standard experimental conditions with a 12-hour light-12-hour dark cycle with free access to water and food. The mice were anesthetized by intraperitoneal injection of 5% chloral hydrate, and administration of the drug was administered through the tail vein after confirming that the mice were completely anesthetized and had no eyelid reflex. The mice were randomly divided into three groups. A first group was a negative control group and was injected with physiological saline through the tail vein; a second group was a low-dose group, with 0.5 mg/mL sulfate gluco-galacto-oligosaccharide injected into the tail vein; and a third group was a high-dose group, with 1.0 mg/mL sulfate gluco-galacto-oligosaccharide injected into the tail vein. After tail vein administration, the mouse carotid arteries were dissected, and a filter paper piece (1 mm×2 mm) dipped in 6.0% ferric chloride solution was applied to the outer wall of the mouse carotid artery to allow induction for 3 min to construct a ferric chloride-induced carotid artery thrombosis model.
The blood flow and thrombosis of the mouse carotid arteries were observed using a laser speckle flow imager, and the mouse carotid arteries were observed under the moorFLPI-2 lens for 15 min. The carotid arteries of the mice at the end of the observation were carefully dissected and stained with HE.
Charts were produced using GraphPad Prism 6.0 software, and statistical differences were analyzed using one-way analysis of variance and Dunnett's multiple comparisons. P<0.05 indicated a significant difference.
Blood vessel occlusion time refers to a duration from removal of the filter paper soaked in ferric chloride to the blood vessel occlusion. If no thrombosis was observed 15 min after removal of the ferric chloride filter paper, 15 min was considered as the vessel occlusion time. Combined with FIG. 3, in the negative control group (physiological saline group), the average blood vessel occlusion time was 4.5±0.23 min. […]

[4] = Tail tip bleeding time (bleeding risk); type: in vivo, C57/BL-6J mice; details: tail vein, mice; for cumulative bleeding time: 10 min after administration, capped at 20 min
Protocol: as §3, with “vein.” for “vein. After tail vein administration, the mouse carotid arteries were dissected, and a filter paper piece (1 mm×2 mm) dipped in 6.0% ferric chloride solution was applied to the outer wall of the mouse carotid artery to allow induction for 3 min to construct a ferric chloride-induced carotid artery thrombosis model.”
10 min after administration, the mouse was placed stably with its tail in a naturally straightened state. The mouse tail was cut off 3 mm from the tip, and then immersed in a silanized tube filled with 37° C. physiological saline. Start timing from cutting off the tail tip, 20 min. the accumulated bleeding time t after cutting off the tail tip of the mouse was recorded with a stopwatch. If the bleeding time t was greater than 20 min, it was recorded as 20 min.
Data processing was conducted using the Graphpad Prism 6.0 software. A dot plot of sample concentration was made versus bleeding time. P<0.05 indicated a significant difference.
Bleeding time refers to a duration required from bleeding to natural hemostasis after capillary damage. In the negative control group (physiological saline group), the cumulative bleeding time was 10.35±5.48 min.

Chain of Coagulation factor FXa (P00742 235-488 limits assumed): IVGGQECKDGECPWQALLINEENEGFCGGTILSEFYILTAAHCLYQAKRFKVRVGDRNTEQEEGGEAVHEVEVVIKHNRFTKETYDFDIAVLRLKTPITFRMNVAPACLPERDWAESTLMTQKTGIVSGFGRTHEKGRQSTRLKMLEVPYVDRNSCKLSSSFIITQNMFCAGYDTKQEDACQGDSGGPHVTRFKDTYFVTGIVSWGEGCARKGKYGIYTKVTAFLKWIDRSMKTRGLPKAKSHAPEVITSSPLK
Chain of Coagulation factor FXa (P00742 41-179 limits assumed): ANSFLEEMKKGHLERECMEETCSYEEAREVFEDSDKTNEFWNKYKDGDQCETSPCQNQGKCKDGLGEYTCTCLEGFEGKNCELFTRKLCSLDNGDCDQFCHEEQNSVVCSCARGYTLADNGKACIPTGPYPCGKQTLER
T1 sequence (P03951 388-625 limits assumed): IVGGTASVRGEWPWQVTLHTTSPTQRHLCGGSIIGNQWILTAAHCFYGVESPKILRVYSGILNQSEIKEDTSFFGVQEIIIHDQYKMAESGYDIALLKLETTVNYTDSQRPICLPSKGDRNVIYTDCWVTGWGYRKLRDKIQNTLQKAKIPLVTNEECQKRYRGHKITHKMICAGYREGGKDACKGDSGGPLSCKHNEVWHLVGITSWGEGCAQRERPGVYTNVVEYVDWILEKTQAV
T1 sequence (P03951 19-387 limits assumed): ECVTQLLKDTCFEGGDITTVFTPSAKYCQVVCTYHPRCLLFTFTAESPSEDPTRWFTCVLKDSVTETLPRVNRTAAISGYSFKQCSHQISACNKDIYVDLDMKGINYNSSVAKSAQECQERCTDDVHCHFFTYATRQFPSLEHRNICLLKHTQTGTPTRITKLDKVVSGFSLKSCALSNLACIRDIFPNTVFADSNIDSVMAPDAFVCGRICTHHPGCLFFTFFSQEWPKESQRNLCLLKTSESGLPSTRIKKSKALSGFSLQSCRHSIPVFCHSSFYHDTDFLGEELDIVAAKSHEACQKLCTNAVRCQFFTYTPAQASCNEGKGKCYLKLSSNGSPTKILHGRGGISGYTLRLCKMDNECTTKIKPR
Chain of Kallikrein (P03952 391-638 limits assumed): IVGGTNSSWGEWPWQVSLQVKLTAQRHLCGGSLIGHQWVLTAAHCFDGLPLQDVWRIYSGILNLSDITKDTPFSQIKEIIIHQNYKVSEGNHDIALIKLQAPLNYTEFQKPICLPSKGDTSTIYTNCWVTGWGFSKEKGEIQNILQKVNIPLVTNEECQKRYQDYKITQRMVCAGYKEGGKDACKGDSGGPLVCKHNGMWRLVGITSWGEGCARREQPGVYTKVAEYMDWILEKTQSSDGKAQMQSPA
Chain of Kallikrein (P03952 20-390 partner limits assumed): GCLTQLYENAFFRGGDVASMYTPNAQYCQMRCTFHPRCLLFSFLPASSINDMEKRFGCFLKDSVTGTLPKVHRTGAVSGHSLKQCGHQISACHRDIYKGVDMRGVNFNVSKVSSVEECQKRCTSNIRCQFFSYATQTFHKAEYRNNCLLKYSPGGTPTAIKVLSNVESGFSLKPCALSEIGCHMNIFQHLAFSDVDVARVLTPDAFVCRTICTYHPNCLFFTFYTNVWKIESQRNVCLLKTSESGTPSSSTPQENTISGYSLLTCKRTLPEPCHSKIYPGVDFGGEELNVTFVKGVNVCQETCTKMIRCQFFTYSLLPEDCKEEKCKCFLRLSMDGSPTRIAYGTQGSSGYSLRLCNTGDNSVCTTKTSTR

gluco-galacto-oligosaccharide [reference compound]
Inhibitory effect on coagulation factor FXa (Coagulation factor FXa): no inhibitory activity

sulfate gluco-galacto-oligosaccharide [0.47]
Inhibition rate of FXa (Coagulation factor FXa): 10.2%

sulfate gluco-galacto-oligosaccharide [1.23]
Inhibition rate of FXa (Coagulation factor FXa): 39.2%

sulfate gluco-galacto-oligosaccharide
Inhibitory effect on coagulation factor FXa (Coagulation factor FXa): Inhibition | Inhibition rate of FXa (Coagulation factor FXa; listed as sulfate gluco-galacto-oligosaccharide with averagely 1.65 sulfate groups per sug): 57.6% | Inhibitory effect on coagulation factor FXIa [1]: No inhibition | Inhibitory effect on coagulation factor FXIIa (Coagulation factor FXIIa): No inhibition | Inhibitory effect on Trypsin (Trypsin): No inhibition | Inhibitory effect on Thrombin (Thrombin): No inhibition | Inhibitory effect on Kallikrein (Kallikrein): No inhibition | Effect on APTT (plasma coagulation time relative to physiological saline group) [2]: significant impact on APTT | average blood vessel occlusion time ([3]; 0.5 mg/mL, observed 15 min): 5.4 ± 1.37 min | Blood flow in carotid artery ([3]; 1.0 mg/mL): remained unchanged | average blood vessel occlusion time ([3]; 1.0 mg/mL, 15 min recorded if no thrombosis within 15 min): 15 min | Difference of cumulative bleeding time from physiological saline group ([4]; 0.5 mg/mL and 1.0 mg/mL): no statistically significant difference | cumulative bleeding time ([4]; 0.5 mg/mL): 11.88 ± 4.44 min | cumulative bleeding time ([4]; 1.0 mg/mL): 11.60 ± 4.13 min

sulfate gluco-galacto-oligosaccharide [2.10]
Inhibition rate of FXa (Coagulation factor FXa): 65.5%

sulfate gluco-galacto-oligosaccharide [2.52]
Inhibition rate of FXa (Coagulation factor FXa): 78.4%
